Inhibition of growth data for nine molecules are collected here from ChEMBL document CHEMBL1955806, “Design, synthesis, single-crystal and preliminary antitumor activity of novel arenesulfonylimidazolidin-2-ones” (2012).

What all share (format): functional
For one test, the system named is SF-295. Put plainly: Growth inhibition of human SF295 cells at 10 uM after 48 hrs by sulforhodamine B assay. Conditions: SF-295, 48 h, read-out: GI.
The test system of the next test is UO-31. Put plainly: Growth inhibition of human UO31 cells at 10 uM after 48 hrs by sulforhodamine B assay. The following applies: UO-31, 48 h, read-out: GI.
The test system of a further test is MOLT-4. As to the kind of experiment: Growth inhibition of human MOLT4 cells at 10 uM after 48 hrs by sulforhodamine B assay. Conditions: MOLT-4, 48 h, read-out: GI. (In general: The SRB assay estimates cell density from bound dye.)
For the next test, the system named is CAKI-1. As to the kind of experiment: Growth inhibition of human CAKI-1 cells at 10 uM after 48 hrs by sulforhodamine B assay. Conditions: CAKI-1, 48 h, read-out: GI.
A further test deals with IGROV-1. Put plainly: Growth inhibition of human IGROV1 cells at 10 uM after 48 hrs by sulforhodamine B assay. The following applies: IGROV-1, 48 h, read-out: GI.
Another test concerns HCT-116. Put plainly: Growth inhibition of human HCT116 cells at 10 uM after 48 hrs by sulforhodamine B assay. The following applies: HCT-116, 48 h, read-out: GI.
For another test, the system named is UACC-62. Put plainly: Growth inhibition of human UACC62 cells at 10 uM after 48 hrs by sulforhodamine B assay. Conditions: UACC-62, 48 h, read-out: GI.
The next test has as its system PC-3. As to the kind of experiment: Growth inhibition of human PC3 cells at 10 uM after 48 hrs by sulforhodamine B assay. Conditions: PC-3, 48 h, read-out: GI.
Another test deals with HOP-92. Put plainly: Growth inhibition of human HOP92 cells at 10 uM after 48 hrs by sulforhodamine B assay. The following applies: HOP-92, 48 h, read-out: GI.

Consider `COc1ccc(S(=O)(=O)N2C(=O)N(S(=O)(=O)c3ccc(OC)cc3)[C@H](OC)[C@H]2OC)cc1` (relative stereo), for which the inhibition of growth at 10 µM with SF-295 worked out at 6.43%; with UO-31 it was 35.1%; with MOLT-4 it was 15.6%; in the test on CAKI-1, 36.8%; with IGROV-1, 6.17%; with HCT-116, 8.94%. Moreover, the inhibition of growth at 10 µM in the test with UACC-62 was found to be 20.3%; in the test on PC-3, 22.2%; in the test with HOP-92, 61%.
On to `CO[C@H]1NC(=O)N(S(=O)(=O)c2ccc(Cl)cc2)[C@@H]1OC` (relative stereo), for which the inhibition of growth at 10 µM in the test with SF-295 was 7.91%; in the test with UO-31 it was 22%; in the test with CAKI-1, 7.49%; with IGROV-1, -23.9%; in the test with HCT-116, -10.3%; in the test on PC-3 it was 2.67%. Moreover, the inhibition of growth at 10 µM in the test with HOP-92 was -13.6%.
Take `COc1ccc(S(=O)(=O)N2C(=O)N(S(=O)(=O)c3ccc(OC)cc3OC)[C@H](OC)[C@H]2OC)c(OC)c1` (relative stereo): the inhibition of growth at 10 µM in the test with SF-295 was 4.19%; with UO-31 it was 23.3%; in the test on MOLT-4, 14.2%; in the test on CAKI-1, 17.1%; in the test with IGROV-1 it was 3.77%; in the test on HCT-116, -2.15%. The inhibition of growth at 10 µM worked out at 16% in the test with UACC-62 and 15.9% in the test with PC-3.
`COc1ccc(S(=O)(=O)N2C(=O)N[C@H](OC)[C@H]2OC)cc1` (relative stereo): the inhibition of growth at 10 µM is 8.51% in the test with SF-295; -5.62% in the test on MOLT-4; 7.51% in the test on CAKI-1; -20.7% in the test on IGROV-1; -23.4% with HCT-116; -2.45% in the test with PC-3.
Take `CO[C@H]1NC(=O)N(S(=O)(=O)c2ccc3ccccc3c2)[C@@H]1OC` (relative stereo): the inhibition of growth at 10 µM is 4.43% in the test with SF-295; 13.7% in the test on UO-31; -7.3% in the test with CAKI-1; -25.5% in the test on IGROV-1; -4.18% with HCT-116; 1.65% with UACC-62. Also, the inhibition of growth at 10 µM with PC-3 was found to be 2.1%.
With `COc1ccc(S(=O)(=O)N2C(=O)N[C@H](OC)[C@H]2OC)c(OC)c1` (relative stereo), the inhibition of growth at 10 µM in the test with SF-295 is 2.06%; in the test on UO-31, 6.25%; in the test on CAKI-1 it was 21.2%; in the test on IGROV-1, -13.9%; with UACC-62, 8.26%; in the test with PC-3 it was 4.15%.
Regarding `CO[C@@H]1[C@@H](OC)N(S(=O)(=O)c2ccc(Cl)cc2Cl)C(=O)N1S(=O)(=O)c1ccc(Cl)cc1Cl` (relative stereo), the inhibition of growth at 10 µM with SF-295 is 16%; with UO-31, 15.3%; with MOLT-4, 14.2%; in the test on CAKI-1, 25%; with IGROV-1 it was 4.16%; in the test on HCT-116 it was 11.9%. The inhibition of growth at 10 µM with UACC-62 stood at 4.25%; with PC-3, 22.5%; in the test on HOP-92, 60.2%.
For the molecule `CO[C@@H]1[C@@H](OC)N(S(=O)(=O)c2ccccc2)C(=O)N1S(=O)(=O)c1ccccc1` (relative stereo), the inhibition of growth at 10 µM is -12.3% in the test with SF-295; 15% with UO-31; 13.3% in the test with MOLT-4; 10.4% with CAKI-1; 3.06% with IGROV-1; -2.02% in the test with HCT-116. Besides, the inhibition of growth at 10 µM is -6.88% with UACC-62, 5.78% in the test on PC-3 and 29.9% in the test on HOP-92.
`CO[C@H]1NC(=O)N(S(=O)(=O)c2c(C)cc(C)cc2C)[C@@H]1OC` (relative stereo): the inhibition of growth at 10 µM is 14.7% in the test with UO-31; 15.7% in the test on CAKI-1; -7.61% with IGROV-1; 6.82% in the test with UACC-62; 4.26% in the test on PC-3; 21.3% with HOP-92.
